The text below walks through data of ChEMBL document CHEMBL4477188, “Callyazepin and (3R)-Methylazacyclodecane, Nitrogenous Macrocycles from a Callyspongia sp. Sponge” (J Nat Prod, 2016).

For one experiment, the system named is Salmonella typhimurium. Briefly: Antimicrobial activity against Salmonella typhimurium ATCC 14028 after 24 hrs by serial two fold dilution method. It counts as functional, Salmonella enterica subsp. enterica serovar Typhimurium. The conditions noted are these: Salmonella enterica, ATCC 14028, 24 h.
The test system of a further experiment is Escherichia coli. Briefly: Antimicrobial activity against Escherichia coli ATCC 25922 after 24 hrs by serial two fold dilution method. It counts as functional. The settings on record: ATCC 25922, 24 h.
The next experiment relates to Bacillus spizizenii. Briefly: Antimicrobial activity against Bacillus subtilis ATCC 6633 after 24 hrs by serial two fold dilution method. It is filed as functional. The conditions noted are these: ATCC 6633, 24 h.
In the next experiment the test system is A549. The experiment in a line: Cytotoxicity against human A549 cells assessed as reduction in cell viability after 72 hrs by MTT assay. The conditions noted are these: A549, 72 h. It is filed as functional, cell-based. A general note: Formazan colour is commonly taken as a measure of viable cells.
A further experiment relates to Staphylococcus aureus. The experiment in a line: Antimicrobial activity against Staphylococcus aureus ATCC 6538P after 24 hrs by serial two fold dilution method. It counts as functional.
Another experiment relates to Proteus vulgaris. The experiment in a line: Antimicrobial activity against Proteus vulgaris ATCC 3851 after 24 hrs by serial two fold dilution method. It counts as functional. The settings on record: ATCC 3851, 24 h.
In the next experiment the test system is Micrococcus luteus. Briefly: Antimicrobial activity against Micrococcus luteus IFC 12708 after 24 hrs by serial two fold dilution method. It is filed as functional. The settings on record: IFC 12708, 24 h.
Another experiment deals with K562. The experiment in a line: Cytotoxicity against human K562 cells assessed as reduction in cell viability after 72 hrs by MTT assay. It is filed as functional, cell-based. The conditions noted are these: K562, 72 h.

As a reminder, the MIC is the lowest concentration found to suppress growth. The IC50 is the concentration that gives 50% inhibition. `C[C@@H]1CCCCCCCNC1`: the MIC in the experiment with Salmonella typhimurium, in the experiment with Escherichia coli, in the experiment with Bacillus spizizenii, in the experiment with Staphylococcus aureus, in the experiment on Proteus vulgaris and in the experiment on Micrococcus luteus was ≥ 128 µM each time. The IC50 with A549 was found to be 3800 nM; in the experiment on K562, 3.2 µM.

As to `COC(=O)[C@H](C)[N@@+]1(C=O)CC[C@H]2CCCCCCCCCC[C@H]2[C@@H](C)C1`, the minimal inhibitory concentration (MIC) in the experiment with Salmonella typhimurium, in the experiment with Escherichia coli, with Bacillus spizizenii, in the experiment with Staphylococcus aureus, against Proteus vulgaris and with Micrococcus luteus was ≥ 128 µM throughout. Further, the values for the IC50 with A549 and with K562 were 3000 nM and 7.4 µM, respectively.

For the compound `COc1cccc2c1C(=O)c1c(O)c3c(c(O)c1C2=O)C[C@@](O)(C(=O)CO)C[C@@H]3O[C@H]1C[C@H](N)[C@H](O)[C@H](C)O1` [DOXORUBICIN], the IC50 in the experiment on A549 was 500 nM; in the experiment on K562, 0.8 µM.
